This test has as its system CD2F1 mice, AMSA-resistant P388 leukemia ip, median survival T/C. Put plainly: NCI In Vivo Anticancer Drug Screen. Data for tumor model P388 Leukemia resistant to AMSA; NSC 249992 (intraperitoneal) in CD2F1 (CDF1) mice. Particulars: endpoint: median survival time, higher = longer survival. On the procedure: The antitumor activity of compounds was measured in mice bearing transplantable tumors. Survival or tumor size were measured and the results are expressed as the measurement made in the treated group (T) divided by the measurement made in the vehicle treated control group (C). The tumor model used in this assay is P388 Leukemia resistant to AMSA; NSC 249992 (intraperitoneal) in CD2F1 (CDF1) mice

Structures are written as SMILES. Values joined by “and” are separate entries in the source; they are usually repeats but may differ in a detail not shown here. Equal values may be shown once. Toxic doses and inconclusive results are not listed.

With `COc1cccc2c1C(=O)c1c(O)c3c(c(O)c1C2=O)C[C@@](O)(/C(C)=N/NC(=O)c1ccccc1)C[C@@H]3OC1CC(N)C(O)C(C)O1` (stereo not given in full), the T/C (dose: 1.94 mg/kg/injection, schedule: Q04DX003 (ip), vehicle: water) was 109 % of control; the T/C (dose: 3.24 mg/kg/injection, schedule: Q04DX003 (ip), vehicle: water) is 117 % of control; the T/C (dose: 5.4 mg/kg/injection, schedule: Q04DX003 (ip), vehicle: water) was 123 % of control; the T/C (dose: 9.0 mg/kg/injection, schedule: Q04DX003 (ip), vehicle: water) is 123 % of control; the T/C (dose: 15.0 mg/kg/injection, schedule: Q04DX003 (ip), vehicle: water) is 115 % of control.

Consider `CCCCC(=O)N(c1ccc(Nc2c3ccccc3nc3cc([N+](=O)[O-])ccc23)cc1)S(C)(=O)=O`, for which the T/C is 100 % of control (dose: 10.8 mg/kg/injection, schedule: Q04DX003 (ip), vehicle: water); 96 % of control (dose: 18.0 mg/kg/injection, schedule: Q04DX003 (ip), vehicle: water); 95 % of control (dose: 30.0 mg/kg/injection, schedule: Q04DX003 (ip), vehicle: water); 99 % of control (dose: 50.0 mg/kg/injection, schedule: Q04DX003 (ip), vehicle: water); 91 % of control (dose: 83.3 mg/kg/injection, schedule: Q04DX003 (ip), vehicle: water).

Take `CCCCC(=O)OCC(=O)[C@]1(O)Cc2c(O)c3c(c(O)c2[C@@H](OC2CC(NC(=O)C(F)(F)F)C(O)C(C)O2)C1)C(=O)c1c(OC)cccc1C3=O` (stereo not given in full): the T/C reads like this: (dose: 19.4 mg/kg/injection, schedule: Q04DX003 (ip), vehicle: clinical formulation) 106 % of control; (dose: 32.4 mg/kg/injection, schedule: Q04DX003 (ip), vehicle: clinical formulation) 117 % of control; (dose: 54.0 mg/kg/injection, schedule: Q04DX003 (ip), vehicle: clinical formulation) 120 % of control; (dose: 90.0 mg/kg/injection, schedule: Q04DX003 (ip), vehicle: clinical formulation) 113 % of control.

Turning to `CCN(CC)CCNc1ccc(C)c2sc3ccccc3c(=O)c12`, the T/C (dose: 16.2 mg/kg/injection, schedule: Q01DX005 (ip), vehicle: saline) was 101 % of control; the T/C (dose: 19.4 mg/kg/injection, schedule: Q01DX005 (ip), vehicle: water) is 92 % of control; the T/C (dose: 27.0 mg/kg/injection, schedule: Q01DX005 (ip), vehicle: saline) was 101 % of control; the T/C (dose: 45.0 mg/kg/injection, schedule: Q01DX005 (ip), vehicle: saline) was 99 % of control; the T/C (dose: 54.0 mg/kg/injection, schedule: Q01DX005 (ip), vehicle: water) is 90 % of control; the T/C (dose: 75.0 mg/kg/injection, schedule: Q01DX005 (ip), vehicle: saline) is 94 % of control. In addition, the T/C reads like this: (dose: 90.0 mg/kg/injection, schedule: Q01DX005 (ip), vehicle: water) 89 % of control; (dose: 125.0 mg/kg/injection, schedule: Q01DX005 (ip), vehicle: saline) 90 % of control.

Consider `CC[C@]1(O)C[C@H]2CN(CCc3c([nH]c4ccccc34)[C@@](C(=O)OC)(c3cc4c(cc3OC)N(C=O)[C@H]3[C@@](O)(C(=O)OC)[C@H](OC(C)=O)[C@]5(CC)C=CCN6CC[C@]43[C@@H]65)C2)C1`, for which the T/C runs as follows: (dose: 0.72 mg/kg/injection, schedule: Q04DX003 (ip), vehicle: saline) 176 % of control; (dose: 1.0 mg/kg/injection, schedule: Q04DX003 (ip), vehicle: saline) 102 % of control; (dose: 1.2 mg/kg/injection, schedule: Q04DX003 (ip), vehicle: saline) 201 % of control; (dose: 2.0 mg/kg/injection, schedule: Q04DX003 (ip), vehicle: saline) 193 % of control.

On to `CO[C@H]1Nc2c(ccc(C)c2O)C(=O)N2C=C(/C=C/C(N)=O)C[C@@H]12`, for which the T/C is 104 % of control (dose: 0.08 mg/kg/injection, schedule: Q04DX003 (ip), vehicle: saline + alcohol) and 123 % of control (dose: 0.13 mg/kg/injection, schedule: Q04DX003 (ip), vehicle: saline + alcohol).

With `COc1cc2cc3c4cc(OC)c(OC)cc4cc[n+]3c(C)c2cc1OC` (tested in a mixture with another compound), the T/C (dose: 25.9 mg/kg/injection, schedule: Q04DX003 (ip), vehicle: water) was 110 % of control and the T/C (dose: 43.2 mg/kg/injection, schedule: Q04DX003 (ip), vehicle: water) is 116 % of control.

On to `O=C1c2c(O)ccc(O)c2C(=O)c2c(NCCNCCO)ccc(NCCNCCO)c21`, for which the T/C runs as follows: (dose: 1.3 mg/kg/injection, schedule: Q04DX002 (ip), vehicle: water) 110 % of control; (dose: 3.6 mg/kg/injection, schedule: Q04DX003 (ip), vehicle: saline) 157 % of control; (dose: 6.0 mg/kg/injection, schedule: Q04DX002 (ip), vehicle: water) 96 % of control; (dose: 6.0 mg/kg/injection, schedule: Q04DX003 (ip), vehicle: saline) 96 % of control and 123 % of control; (dose: 10.0 mg/kg/injection, schedule: Q04DX002 (ip), vehicle: water) 89 % of control.

Consider `C(=N/NC1=NCCN1)/c1c2ccccc2c(/C=N\NC2=NCCN2)c2ccccc12`, for which the T/C is 121 % of control (dose: 5.18 mg/kg/injection, schedule: Q04DX002 (ip), vehicle: saline); 123 % of control (dose: 14.4 mg/kg/injection, schedule: Q04DX002 (ip), vehicle: saline); 123 % of control (dose: 40.0 mg/kg/injection, schedule: Q04DX002 (ip), vehicle: saline).

In the case of `O=C(Nc1ccc(C2=NCCCN2)cc1)c1ccc(C(=O)Nc2ccc(C3=NCCCN3)cc2)cc1`, the T/C (dose: 10.8 mg/kg/injection, schedule: Q04DX003 (ip), vehicle: Klucel (hydroxypropylcellulose) (HPC)) was 167 % of control; the T/C (dose: 18.0 mg/kg/injection, schedule: Q04DX003 (ip), vehicle: Klucel (hydroxypropylcellulose) (HPC)) is 185 % of control; the T/C (dose: 30.0 mg/kg/injection, schedule: Q04DX003 (ip), vehicle: Klucel (hydroxypropylcellulose) (HPC)) was 278 % of control; the T/C (dose: 50.0 mg/kg/injection, schedule: Q04DX003 (ip), vehicle: Klucel (hydroxypropylcellulose) (HPC)) was 95 % of control.

Regarding `CC[C@](O)(C(=O)O)c1cc2n(c(=O)c1CO)Cc1cc3ccccc3nc1-2`, the T/C was 192 % of control (dose: 18.0 mg/kg/injection, schedule: Q04DX003 (ip), vehicle: saline); 193 % of control (dose: 30.0 mg/kg/injection, schedule: Q04DX003 (ip), vehicle: saline); 240 % of control (dose: 50.0 mg/kg/injection, schedule: Q04DX003 (ip), vehicle: saline).

Source of the values: PubChem BioAssay AID324 (DTP/NCI, 2004).
